Measured values published in patent publication US20030004126A1, “Formulations of adenosine A1 agonists” (priority 1999, published 2003).

How the values were obtained:
rats = assay: Nociceptive study using an algesymeter (normal nociceptive thresholds); type: in vivo; settings: Compound A in combination with morphine, rat
Experimental: (b) Nociceptive Study for 5′-Deoxy-5′-fluoro-N-(tetrahydro-pyran4-yl)-adenosine (Adenosine A1 Agonist) and morphine
Nociception studies were carried out using an algesymeter (Randal, L et. al ([…]). Arch. Int. Pharmacodyn., 61 409-419. Variations in the rats normal nociceptive thresholds were studied.

Male Random Hooded rats = assay: Carrageenan model: carrageenan-induced decrease in weight bearing (allodynia) and paw oedema; type: in vivo; settings: Compound A orally, dosed with morphine subcutaneously; rat, 3 hours after intraplantar 2% carrageenan; dual channel weight averager
Experimental: (a) Carrageenan Model for 5′-Deoxy-5′-fluoro-N-(tetrahydro-pyran-4-yl)-adenosine (Adenosine A1 Agonist) and Morphine
Male Random Hooded rats (180-220 g) were used. The test compound or vehicle was administered 30 mins before the 2nd test compound or vehicle. The test compounds and vehicles used were: (i) Compound A in 0.25% methyl cellulose and (ii) Morphine was made up in saline. Compound A was administered orally. Morphine was administered subcutaneously. After a further 30 mins 100 ul of 2% carrageenan was injected intraplantar into the left hind paw and the animals were then returned to their cages. Three hours later behavioural testing of the carrageenan-induced decrease in weight on the inflamed left hind paw (% weight on the inflammed left hind paw) and associated oedema was assessed. Weight bearing was measured using the dual channel weight averager and paw oedema was assessed using a plethysmometer. The dual channel weight averager is commercially available and is described in the following abstract: Validation of the dual channel weight averager as an instrument for the measurement of inflammatory pain, N. M. Clayton et al., 1997 British Journal Pharmacol. 120, 219P
Note: In the absense of pain, weight on the hind paws would be evenly distributed, i.e. 50% on each hind paw. […]

## O[C@@H]1[C@H](O)[C@@H](CF)O[C@H]1n1cnc2c(NC3CCOCC3)ncnc21 [5′-Deoxy-5′-fluoro-N-(tetrahydro-pyran-4-yl)-adenosine]
rats
  effect on normal nociceptive levels (nociceptive threshold): significantly increased the normal nociceptive levels of the rat producing at least an additive if not synergistic effect
Male Random Hooded rats
  effect against the carrageenan-induced decrease in weight bearing: at least an additive effect
